One may read the IC50 as the concentration that inhibits the measured activity by half. A word on the Km: it is the concentration of substrate that gives half-maximal velocity.

Data set [1] concerns the target T1, solubilized γ-secretase (Homo sapiens, UniProt P49768).
T1 construct: γ-secretase activity from HeLa cells specifically cleaves the Notch protein; endogenous in cells; host or cells: HeLa cells (detergent-solubilized membrane fraction); substrate made in E. coli BL21 (DE3)
Nature of the data set: In vitro Notch cleavage ELISA (NusA-Notch fusion cleaved by solubilized γ-secretase, Val-1744/anti-FLAG sandwich). The class given is biochemical. As for the experimental part:
In vitro Notch Cleavage ELISA. Notch cleavage was also assessed using an ELISA technique. Prior to setting up a reaction, the required number of wells in a 96-well half-area plate (Costar) were coated with 50 μl of Val-1744 antibody diluted 1:200 in 0.1 M NaHCO3, pH 8.2. Plates were incubated overnight at 4° C. The Notch cleavage reaction was set up as follows. NusA-Notch (0.9 μM) was incubated with 70 mg/ml of solubilized γ-secretase in 50 mM Pipes, pH 7.0, 0.25% CHAPSO in a total volume of 25 μl overnight at 37° C. The next day, the plate coated with Val-1744 antibody was washed 3 times with PBS/0.05% Tween-20 and blocked using 4% BSA in PBS/0.05% Tween-20 for 1 hour. […] The color was allowed to develop for 1 hour and 50 µl of 1M H3PO4 was added and the plates read at 450 nm on a SpectraMax Plus plate reader. […]
Inhibition of Notch Cleavage. […] IC50′s were calculated for inhibitors using the 4-parameter logistic model in the GraFit 4.0 program.
It is based on a sandwich ELISA using the highly specific anti-Val 1744 and anti Flag antibodies to capture the N- and C-terminus of the NICD fragment from the Notch fusion protein in the presence of γ-secretase. […] The chromogenic substrate for HRP, TMB reagent (Kirkegaard & Perry) is added and the color once developed is read at 450 nm on a SpectraMax Plus plate reader.
A general note: An ELISA detects its analyte on a solid surface through an enzyme-linked reagent.

The target in data set [2] is T1, solubilized γ-secretase. Nature of the data set: Cleavage of Notch as determined by Western blot analysis. The class given is biochemical. As for the experimental part:
Cleavage of Notch as Determined by Western Blot Analysis. NusA-Notch fusion (1.7 μM) was incubated with 70 mg/ml solubilized γ-secretase in 50 mM Pipes, pH 7.0, 0.25% CHAPSO in a total volume of 50 μl overnight at 37° C. DAPT (PHA-568638) was added at varying concentrations. The reactions were stopped with the addition of 12.5 μl of 5× Laemmli buffer (Laemmli 1970) and 30 μl of the mixture was electrophoresed on a 15% SDS-PAGE. Proteins were transferred to nitrocellulose using a semi-dry blot apparatus (Millipore) and blocked for 2 hours using 4% BSA in PBS/0.5% Tween-20. […] The membrane was washed three times with PBS/0.5% Tween-20 followed by incubation with anti-rabbit IgG-HRP (1:5000 dil in 4% BSA in PBS/0.5% Tween-20). The membrane was again washed three times and developed using ECL reagents (Amersham, Piscataway, N.J.).
On the technique in general: A western blot detects proteins with antibodies after separation by electrophoresis.

As to `C[C@H](NC(=O)Cc1cc(F)cc(F)c1)C(=O)N[C@H](C(=O)OC(C)(C)C)c1ccccc1` [DAPT], in data set [1] (NusA-Notch substrate, overnight 37° C., FIG. 9, read-out: IC50, inhibition of γ-secretase-mediated Notch cleavage), the half-maximal inhibitory concentration (IC50) was determined as 2.4 nM. The “inhibition of specific cleavage in Notch protein (1743/1744)” value in data set [2] (Western blot probed with Val-1744 antibody, varying concentrations, FIG. 5 lanes 4-8) is “inhibited in a dose-dependent manner”. Besides, the “inhibition of cleavage products of Notch fusion protein” value in data set [2] (Western blot using the C-terminal Flag antibody, three immunoreactive bands) is listed as “only one cleavage product was inhibitable”.
As for “Notch fusion protein substrate: soluble fusion of mouse Notch-1 amino acids 1703-1860 to C-terminus of NusA with C-terminal Flag and 8His tags (SEQ ID NO:2)”, the Km in data set [1] (Michaelis-Menten fit, 0.11 to 3.6 μM substrate, FIG. 8A, read-out: apparent Km for hydrolysis of Notch fusion protein substrate by solubilized γ-secretase activity) is around 0.7 µM.

The values above are taken from US20110098227A1, “Soluble notch-based substrates for gamma secretase and methods and compositions for using same” (priority 2002, published 2011).
